Experimental data published in patent US7563862B2, “Neural regeneration peptides and methods for their use in treatment of brain damage” (Neuren Pharmaceuticals Limited, priority 2001, dated 2009).
Ends that are not written are not given here.

System: embryonic striatal cells
Assay: haptotactic migration assay, striatal cells
Format: cell-based, rat
Settings: dishes coated with 150 ng, 48 hrs
From the text: To test the cell adhesion and neuronal migration inducing properties of the NRPs a haptotactic migration cell assay was developed (Lu et al.,2001). For this purpose Transwell® cell culture dishes (Costar) with fitting inserts having pores therein with a 12 μm pore size were used to cultivate striatal and neocortical cells. In general, a test agent was adhered to the surface of a culture dish and an insert having pores was placed in culture medium over but not in contact with the surface of the culture dish. Test cells were placed in the inserts, and any cells migrating through the pores and onto the surface of the culture dish reflected chemattractiveness by the test molecule. Under these conditions, the surface of the culture dish would, over time, release some NRP molecules into the culture medium. It can be appreciated that the concentration of “free” NRP would be greater nearer the surface of the culture dish than at distances farther away from the culture dish, thereby creating a gradient in NRP concentration. […] By counting the number and morphology of such migrant cells, effects of NRPs on neuronal migration and differentiation can be evaluated. […]
For seeding striatal cells, 1.5 ml of Neurobasal/B27 medium was put into the culture dishes and 0.5 ml of NeurobasaVB27 medium was put into the insert. The assay was ready for cell seeding. […]

For “KDPEARRAPGSLHPCLAAS-NH2 [NRP-2 segment KS, 19-mer fragment of NRP-2]”, the “migration induction of striatal neurons” value was “substantial migration induction”.
